Tests used:
[1] = parent nucleosides, from previous publications; cited from earlier work
rocR = rocR (Pseudomonas aeruginosa, UniProt Q9HX69); test: rocR-mediated CDN hydrolysis monitored by HPLC; type: biochemical, P. aeruginosa; conditions: 100 nM rocR, 10 μM CDN
DncV = DncV (Vibrio cholerae serotype O1, UniProt Q9KVG7); test: DncV-mediated CDN synthesis, kinetics by HPLC; type: biochemical
[2] = 500 μM NTP, 37 °C, HPLC, CIAP-quenched, mean ± SD

Chain of rocR (Q9HX69 whole entry): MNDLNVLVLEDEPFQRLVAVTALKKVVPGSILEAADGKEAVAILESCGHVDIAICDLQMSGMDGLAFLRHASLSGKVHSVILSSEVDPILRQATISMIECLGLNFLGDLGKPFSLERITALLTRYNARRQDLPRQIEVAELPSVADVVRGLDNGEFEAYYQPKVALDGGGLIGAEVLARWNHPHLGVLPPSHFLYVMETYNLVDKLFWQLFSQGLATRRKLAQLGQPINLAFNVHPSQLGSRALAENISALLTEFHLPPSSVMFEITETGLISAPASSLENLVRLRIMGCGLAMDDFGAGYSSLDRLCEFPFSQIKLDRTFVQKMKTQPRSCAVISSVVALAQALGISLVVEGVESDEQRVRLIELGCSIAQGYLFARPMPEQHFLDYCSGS
Chain of DncV (Q9KVG7 whole entry): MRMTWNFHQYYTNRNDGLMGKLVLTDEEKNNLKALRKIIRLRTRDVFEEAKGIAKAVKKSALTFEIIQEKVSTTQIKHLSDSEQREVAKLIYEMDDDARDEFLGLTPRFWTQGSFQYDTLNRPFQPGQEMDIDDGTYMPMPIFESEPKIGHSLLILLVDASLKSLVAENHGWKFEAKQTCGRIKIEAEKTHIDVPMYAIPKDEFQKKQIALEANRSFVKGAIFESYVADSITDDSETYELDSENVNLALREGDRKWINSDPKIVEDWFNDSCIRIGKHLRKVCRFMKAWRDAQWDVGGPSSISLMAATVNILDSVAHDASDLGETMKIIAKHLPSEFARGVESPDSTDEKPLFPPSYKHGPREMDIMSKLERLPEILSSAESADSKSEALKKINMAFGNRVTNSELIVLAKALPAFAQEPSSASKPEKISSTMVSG

SMILES | ε [1] [M⁻¹ cm⁻¹] | λabs^max [1] [nm] | λem^max [1] [nm] | ϕ (emission quantum yield) [1] | ϕε [1] | time to complete cleavage by rocR (rocR) [min] | k1 (enzyme/substrate association) (rocR; mean ± SD) [µM⁻¹ s⁻¹] | k2 (cleavage reaction) (rocR; mean ± SD) [s⁻¹] | k−1 (enzyme/substrate dissociation) (rocR; mean ± SD) [s⁻¹] | k1 (formation of first phosphodiester linkage, S to I1) (DncV; [2]) | k2 (cyclization of intermediate I1 to product CDN) (DncV; [2]) | k3 (degradation of intermediate pppNpN to pNpN) (DncV; [2]) | k2/k3 (DncV; product formation versus degradation of the intermediate)
Nc1nc2c([C@@H]3O[C@H](CO)[C@@H](O)[C@H]3O)snc2c(=O)[nH]1 [^tzG] | 4870 | 333 | 459 | 2.5×10^−1 | 1203 | – | – | – | – | – | – | – | –
Nc1nc2c(ncn2[C@@H]2O[C@@H]3COP(=O)(O)O[C@H]4[C@@H](O)[C@H](n5cnc6c(=O)[nH]c(N)nc65)O[C@@H]4COP(=O)(O)O[C@H]3[C@H]2O)c(=O)[nH]1 [c-di-GMP] | – | – | – | – | – | ~3 | 3.96 ± 0.07 | 0.76 ± 0.03 | 1.15 ± 0.21 | (7.1 ±2.3) ×10^−6 μM^−1s^−1 | (7.4±2.1) ×10^−2 s^−1 | (6.4±0.3) ×10^−4 s^−1 | 116
